Measurements from patent publication US9915659B2, “Systems and methods for prognosticating brain tumors” (Cedars-Sinai Medical Center, priority 2013, dated 2018).
“Also recorded” adds a separate entry of the source.

How the values were obtained:
GBM patients [1] = test: Survival of temozolomide-treated GBM patients stratified by ZEB1 copy number and MGMT expression; format: in vivo, human; details: temozolomide treatment
Source text: Given our observations that ZEB1 and CD133 expression imparts GSC resistance to differentiation and impacts patient survival, we considered if ZEB1 loss would impact response to therapy. To do this, we explored the role of 06-methylguanine-DNA methyltransferase (MGMT) which removes DNA alkylating agents and therefore hinders the effectiveness of chemotherapeutic alkylating agents including temozolomide.^28 The MGMT promoter region has been shown when hypermethylated to suppress MGMT activity conferring chemosensitivity resulting in favorable prognosis compared to the hypomethylated state of MGMT which results in poor patient outcomes. MGMT expression is inversely correlated to its methylated state. We sought to determine the effect of ZEB1 loss on the clinical impact of hypermethylation of MGMT in the presence of temozolomide.
MGMT expression is inversely correlated to its methylated state. We sought to determine the effect of ZEB1 deletion on the clinical impact of hypermethylation of MGMT in the presence of temozolomide.

GBM patients [2] = test: Kaplan-Meier overall survival of GBM patients treated with or without bevacizumab, stratified by ZEB1 copy number (study set J / data set of 78 GBM patients); format: in vivo, human
Source text: Data are expressed as mean±s.e.m. Kaplan-Meier curves and p values were generated using Prism 6.0v. Two-tailed student's t-test, were used. A P value of *<0.05 was considered significant.

glioblastoma patients = test: Overall survival of 403 glioblastoma patients treated with or without bevacizumab, stratified by ZEB1 expression; format: in vivo, human; details: general patient population
Source text: Studies reported OS results by ZEB1 status and permutations of ZEB1/IDH1 status via (1) Kaplan-Meier curves, (2) hazard ratios (HRs) and corresponding 95% confidence intervals, (3) c-statistic. We translated all reports of survival outcomes to the number of events and the survival time. Patients not experiencing event were censored at the last follow-up date.
Data are presented as frequency (percentage, %) for categorical variables and median (IQR, interquartile range) for continuous variables. ZEB1 and IDH1 mRNA values were log base 2 transformed. Univariate associations between variables were examined with Wilcoxon rank-sum test, chi-square test, or Spearman rank correlation, where appropriate. A Cox proportional hazards regression model was employed in univariate and multivariable analyses to identify variables that predict OS. The proportional hazards assumption was evaluated with Schoenfeld residuals and a Kolmogorov-type supremum test. Hazard ratios (HRs) were expressed as an increase from the 25th to 75th percentile in continuous variables. Multivariable analysis was further carried out with the Cox proportional hazards model to examine whether an improvement in predictive discriminatory power was obtained when ZEB1 was added to the model containing the known marker, IDH1 and age. […]

GBM patients [3] = details: two recent phase III trials; cited from earlier work
GCSCs = test: ZEB1 expression by qRT-PCR in GCSCs treated with IFN-γ; format: cell-based, human; details: IFN-γ 3 days (200 ng/ml)
Procedure: FIGS. 15A-15J depict, in accordance with various embodiments of the present invention, effect of IFN-γ on LIF and ZEB1 activation in patient derived glioma cancer stem cells (GCSCs). (FIG. 15A) GCSCs were treated with IFN-γ for 3-days and ZEB1 expression levels were determined by qRT-PCR. (FIG. 15B) The percentage of CD133^+ GCSCs in the presence and absence of IFN-γ were determined by flow cytometry. GCSCs were incubated with IFN-γ for 7-days. (FIG. 15C) The effects of IFN-γ on secondary neurosphere formation. […] (FIG. 15E) Spearman correlation between LIF and ZEB1 GBM patients (n=28), rank correlation (R) and two-tailed significance is shown. (FIG. 15F) ZEB1 binding motifs within the LIF promoter (CAGGTG, ***P<0.0001 and CAGGTA,***P<0.0001). […]
To generate GSCs that stably express short hairpin RNAs (shRNAs) that target ZEB1, we co-transfected shRNA (Origene, Rockville Md.),—that target ZEB1 into our 0827 or 0323 GSCs, with a VSV-G expression plasmid (Clontech) into the GP2-293 packaging cell line (Clontech) according to the manufacturer's instructions. […] Cells that were resistant to puromycin were characterized for ZEB1 expression by immunoblotting and subsequent cell proliferation using 5-ethynyl-2′-deoxyuridine (EdU) Click-IT assay (Life Technologies) using fluorescence activated cell sorting (FACs) analysis according to the manufacturer's instructions. […]

GSCs [4] = test: CD133 staining of GSCs by flow cytometry (FACs); format: cell-based, human; details: IFN-γ 7 days (100 ng/ml)
Procedure: (§1) GSCs were washed with 1× PBS buffer 3 times and resuspended in 1× PBS. GSCs were fixed in 4% formaldehyde for 15 min at room temperature. Cells were washed with 1× PBS buffer and were incubated in 0.1% Triton X-100 for 5 min, washed and then incubated with FcR Blocker (Mitenyi Biotech) followed by incubation with CD133 antibody conjugated to Phycoerythrin (PE) or although not shown an isotype control was also performed (Mitenyi Biotech), protected from light for 1 hr at room temperature. Cells were washed and analyzed on a FACscan flow cytometer (BD Biosciences, San Jose, Calif.).
as §1, with “performed (Miltenyi” for “performed (Mitenyi”, “1 […]” for “1 hr”, “(BD Biosciences).” for “(BD Biosciences, San Jose, Calif.).”
GCSCs were washed with 1× PBS buffer 3 times and resuspended in 1× PBS. GCSCs were fixed in 4% formaldehyde for 15 min at room temperature. […] Cells were washed and analyzed on a FACscan flow cytometer (BD Biosciences). […]

GSCs [5] = test: Neurosphere formation and limiting dilution sphere-forming assay; format: cell-based, human; details: IFN-γ treated GSCs
Procedure: (§2) Neural Basal A media (Invitrogen) supplemented with EGF and bFGF (R&D Systems) were used to culture primary patient derived glioma stem cells (GSCs) which were dissociated into single cells sorted for CD133 expression and plated onto 24 well plates with various seeding densities (4-100 cells/well). GSCs were incubated at 37° C. at 5% CO2 for 2 to 3 weeks. GSCs were then quantified for neurosphere formation.
as §2, with “GCSCs” for “glioma stem cells (GSCs)”, “GCSCs” for “GSCs”

LIF promoter = test: LIF luciferase reporter assay in GCSCs; format: cell-based, human; details: IFN-γ 200 ng/mL 72 hrs; all constructs except −109/+10 region
Procedure: (§3) To measure transcriptional activity of LIF, 0827 GSCs (1×10^4 cells per transfection, three replicates per condition) were transiently transfected with one of several deletion LIF luciferase reporter plasmids (1 ug; Switchgear) with the use of X-treme gene HP DNA (Roche), seeded in six-well plates (1×10^4 cell per well), and incubated for 48 hrs. IFN-γ cytokine (200 ng/mL) was added to the cultures and the cells were incubated for 72 hrs. The cells were harvested and the luciferase activity was measured with the use of a GloMax 20/20 Luminometer (Promega, Madison, Wis.). These experiments were carried out in triplicate on three different occasions.
as §3, with “GCSCs” for “GSCs”, “IFN-6” for “IFN-γ”, “occasions. […]” for “occasions.”

Cn1nnc2c(C(N)=O)ncn2c1=O [temozolomide]
hazard ratio, patient survival, ZEB1 deletion vs wildtype ZEB1 (GBM patients [1]; high MGMT expression (n=121)): 1.59
hazard ratio, patient survival, ZEB1 deletion vs wildtype ZEB1 (GBM patients [1]; low MGMT expression (n=115)): 1.56

bevacizumab
effect on patient survival (GBM patients [2]; ZEB1 deleted patients): significant survival benefit; also recorded: increase in survival
effect on patient survival (GBM patients [2]; ZEB1 intact / ZEB1 wt patients): no change in survival; also recorded: no effect
effect on patient survival (GBM patients [2]; general patient population, independent data set of 78 GBM patients): did little to alter patient survival
effect on patient survival (glioblastoma patients): did little to alter patient survival
survival advantage in GBM patients (GBM patients [3]): no survival advantage

B1: IFN-γ: proinflammatory cytokine interferon gamma (eBioscience) (protein, UniProt P01579 24-161, looked up)
Interferon gamma: QDPYVKEAENLKKYFNAGHSDVADNGTLFLGILKNWKEESDRKIMQSQIVSFYFKLFKNFKDDQSIQKSVETIKEDMNVKFFNSNKKKRDDFEKLTNYSVTDLNVQRKAIHELIQVMAELSPAAKTGKRKRSQMLFRG
ZEB1 induction (expression) vs untreated (GCSCs): significant increase; also recorded: induced
CD133 expression (GSCs [4]): decreased
secondary neurosphere formation (GSCs [5]): decreased
self-renewal capabilities vs untreated (GSCs [5]; limiting dilution): decreased
LIF transcriptional activity (luciferase deletion constructs) (LIF promoter): suppressive effect
